# Experiments:
# [1] = tested on: elastases, including human metalloproteinase 12; conditions: cited from earlier work
# [2] = tested on: elastase-induced airspace enlargement; conditions: aerosol of 0.1% HA in water for 50 min prior to elastase; cited from earlier work
# [3] = tested on: smoke-induced airspace enlargement; assay type: in vivo, DBA/2J mice
# Description: Eight-week-old female DBA/2J mice (The Jackson Laboratory, Bar Harbor, Me.) were divided into two treatment groups as follows: Group 1 was treated with aerosolized HA, beginning 1 month following initiation of smoke exposure; Group 2 was treated with aerosolized water, beginning 1 month following initiation of smoke exposure. Groups 1 and 2 were exposed to smoke for 3 h per day, 5 days/week, for a period of 10 months. Group 1 was treated with a 0.1% solution of HA in water for 1 h prior to each smoking session. Group 2 received aerosolized water for a similar interval. At various intervals following initial smoke exposure, animals were euthanized to determine (1) DID content in bronchoalveolar lavage fluid (BALF) and whole lungs at 2, 4, 6, 8, and 10 months; (2) lung histopathology at 3, 6, and 10 months; and (3) airspace enlargement as measured by the mean linear intercept (MLI) at 3 months. […]
# At 3, 6, and 10 months following initiation of smoke exposure, mice were asphyxiated with CO2 and their lungs were inflated in situ with 10% neutral-buffered formalin at a constant pressure of 20 cm H2O. […] Slide sections stained with hematoxylin and eosin were examined with the light microscope to determine histological changes and to quantify airspace diameter by the mean linear intercept method^16. […]
# [4] = tested on: smoke-induced elastic fiber injury; conditions: concurrent administration, within 3 months of smoke exposure; cited from earlier work
# [5] = tested on: smoke-induced elastic fiber injury; test: Mouse model of smoke-induced pulmonary emphysema: DID in BALF and whole lungs; assay type: in vivo, DBA/2J mice
# Description: Eight-week-old female DBA/2J mice (The Jackson Laboratory, Bar Harbor, Me.) were divided into two treatment groups as follows: Group 1 was treated with aerosolized HA, beginning 1 month following initiation of smoke exposure; Group 2 was treated with aerosolized water, beginning 1 month following initiation of smoke exposure. Groups 1 and 2 were exposed to smoke for 3 h per day, 5 days/week, for a period of 10 months. Group 1 was treated with a 0.1% solution of HA in water for 1 h prior to each smoking session. Group 2 received aerosolized water for a similar interval. At various intervals following initial smoke exposure, animals were euthanized to determine (1) DID content in bronchoalveolar lavage fluid (BALF) and whole lungs at 2, 4, 6, 8, and 10 months; (2) lung histopathology at 3, 6, and 10 months; and (3) airspace enlargement as measured by the mean linear intercept (MLI) at 3 months.
# Following administration of either aerosolized HA or water, the nebulizer was disconnected and the smoking machine (Model TE-10, Teague Enterprises, Davis, Calif.) was attached to the exposure chamber. Both treatment groups were exposed to cigarette smoke for a period of 3 h/day, 5 days/week. The smoking machine simultaneously burned two filtered research-grade cigarettes (type 2R4F, University of Kentucky). Each cigarette was puffed once per minute for 2 s at a flow rate of 1.05 LPM, yielding 35 cc of smoke. This cycle was repeated nine times before ejecting the cigarette and loading a new one. Proper flow rate was maintained by a vacuum pump that established negative pressure at the exhaust port.
# Beginning 1 month following initial smoke exposure, Group 1 was administered a 0.1% solution of low-molecular-weight (150 kDa) streptococcal HA in water (Bayer, Shawnee, Kans.), using a Misty-Ox nebulizer (Vital Signs, Totowa, N.J.). Group 2 received aerosolized water alone. The nebulizer was connected to a heavy-duty air compressor that delivered a constant pressure of 30 psi. The aerosol entered the exposure chamber through an inflow port attached to the roof and was drawn through the chamber by negative pressure created by a vacuum pump connected to an exhaust port on the side wall. The chamber was large enough (28×19×15 in.) to permit the mice to remain in their cages while inhaling the aerosol, thereby minimizing direct handling of the animals.
# The levels of the elastin-specific crosslinking amino acids, DID, were measured in both BALF and whole-lung tissues. Animals were asphyxiated with CO2 and their lungs were lavaged three times with 1-ml aliquots of Hanks' solution. Both cell-free lavage fluids and homogenized lung tissues were then hydrolyzed in 6 N HCl at 110° C. for 24 h, and the hydrolysates were filtered and evaporated to remove acid. DID were quantified by high-performance liquid chromatography and electrospray ionization mass spectrometry according to previously published procedures^11.
# COPD patients [6] = test: Tiotropium treatment of COPD patients: D/I in plasma, urine and sputum by LC/MS; assay type: in vivo, human
# Description: COPD patients have elevated levels of D/I in plasma, urine and sputum, which might respond to prolonged bronchodilation. To determine if clinical effects of Tiotropium (TIO) affect tissue degradation of the lung in COPD, clinically stable patients with COPD (n=9) not on TIO prior to the study and at one month and a second month after initiating therapy were tested. Other anticholinergic bronchodilators were stopped prior to TIO, and other therapies/disease treatments were unchanged for the two months of study. To these patients, 18 mcg TIO was administered each 24 hours. D/I in plasma, urine and sputum were measured by liquid chromatography and mass spectrometry (LC/MS) prior to the study and at one month and two months after the study.
# COPD patients [7] = test: Spirometry in post-TIO therapy patients; assay type: in vivo, human; conditions: most post-TIO therapy patients
# Description: The improvement in spirometric indices were usually concordant with levels of D/I in patients.
# [8] = Stability of DES and IDS on acid hydrolysis (6N HCl, 110° C., 24 hrs), LC/MSMS; conditions: for Recovered, mean: 6N HCl at 110° C. for 24 hour; for stability through acid hydrolysis: 10, 5 and 1 ng/ml, HCl hydrolysis at 110° C. for 24 hrs
# Description: The assay of total DES and IDS in biological fluids requires HCl hydrolysis at 110° C. to release DES and IDS from their crosslinked or peptide conjugates. We examined the stability of DES and IDS in three different concentrations (10, 5, and 1 ng/ml) during HCl hydrolysis at 110° C. for 24 hrs. The DES/IDS solutions resulting from the HCl treatment were subjected to LC/MSMS measurements of DES and IDS, which were compared with the measurements of the same concentrations of untreated DES and IDS to calculate the recovery by the acid treatment.
# pro-MMP1 and pro-MMP3 = conditions: cited from earlier work
# [9] = tested on: neutrophils and macrophages; conditions: cited from earlier work
# [10] = COPD patients, 18 mcg TIO each 24 hours, up to two months
compound,measurement,setting,value
hyaluronan [HA],direct inhibition of elastases,[1],does not directly inhibit elastases
same,elastolysis of elastic fibers with bound HA,"[1]; in vitro, several types of elastase including human metalloproteinase 12",prevented elastolysis
same,airspace enlargement vs aerosolized water and elastase,[2],significantly less airspace enlargement
same,mean linear intercept (MLI),"[3]; 3 months of smoke, HA treated for 2 months, smoke alone 58.4 μm, p<0.01",42.6 μm
same,inflammatory response beyond that induced by smoke exposure,"[3]; mouse, in vivo",no evidence of an inflammatory response
same,BALF DID levels,[4],significantly reduced
same,"difference in BALF DID, HA/Smoke vs Smoke-Only",[5]; 2 and 4 months of smoke exposure,not statistically significant
same,"BALF DID, level before the drop","[5]; HA/Smoke group, 0.1% aerosolized HA begun 1 month after start of smoke",0.8 ng/mL
same,"BALF DID, level after the drop","[5]; HA/Smoke group, after 4 months of smoke exposure",less than 1 pg/ml
same,"BALF DID, HA-treated vs Smoke-Only",[5]; subsequent measurements (after 4 months),significantly lower levels
same,"difference in lung DID, HA/Smoke vs Smoke-Only","[5]; whole lungs, 10-month period",not statistically significant
"C[N+]1(C)[C@@H]2C[C@@H](OC(=O)C(O)(c3cccs3)c3cccs3)C[C@H]1[C@@H]1O[C@@H]12 [TIO, Tiotropium]",patients with significant decrease in D/I levels in plasma,COPD patients [6]; [10],10 out of 12
same,patients with significant decrease in D/I levels in sputum,COPD patients [6]; [10],all 12 patients
same,patients with significant decrease in D/I levels in urine,COPD patients [6]; [10],10 out of 12
same,"D/I levels in plasma, urine and sputum",COPD patients [6]; two months of treatment with TIO,significant reductions
same,"FVC, FEV1 and ratio of FEV1/FVC",COPD patients [7],significant increase
same,Residual Volume (RV),COPD patients [7],decreases
"NC(CCCC[n+]1cc(CCC(N)C(=O)O)c(CCCC(N)C(=O)O)c(CCC(N)C(=O)O)c1)C(=O)O (stereo not drawn) [DES, Desmosine]","Recovered, mean",[8]; 1 ng/ml DES/IDS,0.50 ng/mL
same,"Recovered, mean",[8]; 5 ng/ml DES/IDS,2.42 ng/mL
same,"Recovered, mean",[8]; 10 ng/ml DES/IDS,5.04 ng/mL
same,stability through acid hydrolysis,[8],stable through acid hydrolysis
VGVAPG (Human) [elastin-derived hexapeptide isolated from ligamentum nuchae or aorta by porcine pancreatic elastase],pro-MMP1 and pro-MMP3 upregulation,pro-MMP1 and pro-MMP3,induce pro-MMP1 and pro-MMP3 upregulation
same,chemoattractant activity,[9],chemoattractants for neutrophils and macrophages
"NC(CCCC[n+]1cc(CCC(N)C(=O)O)cc(CCC(N)C(=O)O)c1CCCC(N)C(=O)O)C(=O)O (stereo not drawn) [IDS, Isodesmosine]","Recovered, mean",[8]; 1 ng/ml DES/IDS,0.48 ng/mL
same,"Recovered, mean",[8]; 5 ng/ml DES/IDS,2.55 ng/mL
same,"Recovered, mean",[8]; 10 ng/ml DES/IDS,5.37 ng/mL
same,stability through acid hydrolysis,[8],stable through acid hydrolysis
